From the supplement of paper PMC10307832

Key:
Assay in all cases: relative viability (nuclei count vs DMSO), 5 days (fraction); higher = more cells survive
201T = system: 201T
Method in brief: (§1)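 Medians of duplicate plates are given as relative viability. That measure is the nuclei count in treated wells divided by the count in vehicle wells. Counts were taken on 4× images of lung cancer cell lines in 1536-well plates, 5 days after pin-tool dosing the day after seeding with one drug alone or a fixed anchor-drug dose plus five library-drug doses (not always all listed) in √10 steps.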

COR-L 105 = system: COR-L 105
Method in brief: as §1

ChaGo-K-1 = system: ChaGo-K-1
Method in brief: as §1

EPLC-272H = system: EPLC-272H
Method in brief: as §1

H3255 = system: H3255
Method in brief: as §1

HCC-78 = system: HCC-78
Method in brief: as §1

HCC-827 = system: HCC-827
Method in brief: as §1

LC-2-ad = system: LC-2-ad
Method in brief: as §1

LCLC-97TM1 = system: LCLC-97TM1
Method in brief: as §1

NCI-H1666 = system: NCI-H1666
Method in brief: as §1

NCI-H1915 = system: NCI-H1915
Method in brief: as §1

NCI-H2087 = system: NCI-H2087
Method in brief: as §1

NCI-H2126 = system: NCI-H2126
Method in brief: as §1

NCI-H2347 = system: NCI-H2347
Method in brief: as §1

NCI-H23 = system: NCI-H23
Method in brief: as §1

NCI-H2405 = system: NCI-H2405
Method in brief: as §1

NCI-H520 = system: NCI-H520
Method in brief: as §1

NCI-H647 = system: NCI-H647
Method in brief: as §1

NCI-H650 = system: NCI-H650
Method in brief: as §1

NCI-H661 = system: NCI-H661
Method in brief: as §1

PC-14 = system: PC-14
Method in brief: as §1

RERF-LC-KJ = system: RERF-LC-KJ
Method in brief: as §1

Cc1sc2c(c1C)C(c1ccc(Cl)cc1)=N[C@@H](CC(=O)OC(C)(C)C)c1nnc(C)n1-2 [JQ1] + O=C(CCCCCCC(=O)Nc1ccccc1)NO [Vorinostat] (partner 1 µM)
relative viability (201T; first compound 0.04 µM): 0.952
relative viability (201T; first compound 0.4 µM): 0.73
relative viability (201T; first compound 1.265 µM): 0.46
relative viability (201T; first compound 4 µM): 0.367
relative viability (COR-L 105; first compound 0.04 µM): 0.743
relative viability (COR-L 105; first compound 0.1265 µM): 0.773
relative viability (COR-L 105; first compound 0.4 µM): 0.621
relative viability (COR-L 105; first compound 1.265 µM): 0.338
relative viability (COR-L 105; first compound 4 µM): 0.338
relative viability (ChaGo-K-1; first compound 0.04 µM): 0.752
relative viability (ChaGo-K-1; first compound 0.1265 µM): 0.57
relative viability (ChaGo-K-1; first compound 0.4 µM): 0.639
relative viability (ChaGo-K-1; first compound 1.265 µM): 0.505
relative viability (ChaGo-K-1; first compound 4 µM): 0.491
relative viability (EPLC-272H; first compound 0.04 µM): 0.473
relative viability (EPLC-272H; first compound 0.1265 µM): 0.391
relative viability (EPLC-272H; first compound 0.4 µM): 0.274
relative viability (EPLC-272H; first compound 1.265 µM): 0.175
relative viability (EPLC-272H; first compound 4 µM): 0.206
relative viability (H3255; first compound 0.04 µM): 0.896
relative viability (H3255; first compound 0.4 µM): 1.01
relative viability (H3255; first compound 1.265 µM): 0.526
relative viability (H3255; first compound 4 µM): 0.428
relative viability (HCC-78; first compound 0.04 µM): 0.436
relative viability (HCC-78; first compound 0.1265 µM): 0.398
relative viability (HCC-78; first compound 0.4 µM): 0.466
relative viability (HCC-78; first compound 1.265 µM): 0.312
relative viability (HCC-78; first compound 4 µM): 0.329
relative viability (HCC-827; first compound 0.04 µM): 0.95
relative viability (HCC-827; first compound 0.1265 µM): 0.464
relative viability (HCC-827; first compound 1.265 µM): 0.904
relative viability (LC-2-ad; first compound 0.04 µM): 0.699
relative viability (LC-2-ad; first compound 0.1265 µM): 0.396
relative viability (LC-2-ad; first compound 0.4 µM): 0.624
relative viability (LC-2-ad; first compound 1.265 µM): 0.273
relative viability (LC-2-ad; first compound 4 µM): 0.3
relative viability (LCLC-97TM1; first compound 0.04 µM): 0.603
relative viability (LCLC-97TM1; first compound 0.1265 µM): 0.532
relative viability (LCLC-97TM1; first compound 0.4 µM): 0.25
relative viability (LCLC-97TM1; first compound 1.265 µM): 0.121
relative viability (LCLC-97TM1; first compound 4 µM): 0.0762
relative viability (NCI-H1666; first compound 0.04 µM): 0.972
relative viability (NCI-H1666; first compound 0.1265 µM): 0.944
relative viability (NCI-H1666; first compound 0.4 µM): 0.988
relative viability (NCI-H1666; first compound 1.265 µM): 0.823
relative viability (NCI-H1666; first compound 4 µM): 0.788
relative viability (NCI-H1915; first compound 0.04 µM): 0.508
relative viability (NCI-H1915; first compound 0.4 µM): 0.519
relative viability (NCI-H1915; first compound 1.265 µM): 0.299
relative viability (NCI-H1915; first compound 4 µM): 0.203
relative viability (NCI-H2087; first compound 0.04 µM): 0.63
relative viability (NCI-H2087; first compound 0.1265 µM): 0.38
relative viability (NCI-H2087; first compound 0.4 µM): 0.668
relative viability (NCI-H2087; first compound 1.265 µM): 0.316
relative viability (NCI-H2087; first compound 4 µM): 0.127
relative viability (NCI-H2126; first compound 0.04 µM): 0.725
relative viability (NCI-H2126; first compound 0.1265 µM): 0.767
relative viability (NCI-H2126; first compound 0.4 µM): 0.583
relative viability (NCI-H2126; first compound 1.265 µM): 0.382
relative viability (NCI-H2126; first compound 4 µM): 0.346
relative viability (NCI-H2347; first compound 0.04 µM): 0.615
relative viability (NCI-H2347; first compound 0.1265 µM): 0.521
relative viability (NCI-H2347; first compound 0.4 µM): 0.463
relative viability (NCI-H2347; first compound 1.265 µM): 0.282
relative viability (NCI-H2347; first compound 4 µM): 0.259
relative viability (NCI-H23; first compound 0.04 µM): 0.547
relative viability (NCI-H23; first compound 0.1265 µM): 0.586
relative viability (NCI-H23; first compound 0.4 µM): 0.44
relative viability (NCI-H23; first compound 1.265 µM): 0.168
relative viability (NCI-H23; first compound 4 µM): 0.141
relative viability (NCI-H2405; first compound 0.04 µM): 1.03
relative viability (NCI-H2405; first compound 0.4 µM): 0.79
relative viability (NCI-H2405; first compound 1.265 µM): 0.413
relative viability (NCI-H2405; first compound 4 µM): 0.276
relative viability (NCI-H520; first compound 0.04 µM): 0.658
relative viability (NCI-H520; first compound 0.1265 µM): 0.577
relative viability (NCI-H520; first compound 0.4 µM): 0.423
relative viability (NCI-H520; first compound 1.265 µM): 0.234
relative viability (NCI-H520; first compound 4 µM): 0.225
relative viability (NCI-H647; first compound 0.04 µM): 0.615
relative viability (NCI-H647; first compound 0.1265 µM): 0.373
relative viability (NCI-H647; first compound 0.4 µM): 0.406
relative viability (NCI-H647; first compound 1.265 µM): 0.0648
relative viability (NCI-H647; first compound 4 µM): 0.062
relative viability (NCI-H650; first compound 0.04 µM): 0.43
relative viability (NCI-H650; first compound 0.1265 µM): 0.295
relative viability (NCI-H650; first compound 0.4 µM): 0.425
relative viability (NCI-H650; first compound 1.265 µM): 0.242
relative viability (NCI-H650; first compound 4 µM): 0.192
relative viability (NCI-H661; first compound 0.04 µM): 0.766
relative viability (NCI-H661; first compound 0.1265 µM): 0.809
relative viability (NCI-H661; first compound 0.4 µM): 0.677
relative viability (NCI-H661; first compound 1.265 µM): 0.493
relative viability (NCI-H661; first compound 4 µM): 0.456
relative viability (PC-14; first compound 0.04 µM): 0.787
relative viability (PC-14; first compound 0.1265 µM): 0.564
relative viability (PC-14; first compound 0.4 µM): 0.44
relative viability (PC-14; first compound 1.265 µM): 0.203
relative viability (PC-14; first compound 4 µM): 0.16
relative viability (RERF-LC-KJ; first compound 0.04 µM): 0.68
relative viability (RERF-LC-KJ; first compound 0.1265 µM): 0.517
relative viability (RERF-LC-KJ; first compound 0.4 µM): 0.44
relative viability (RERF-LC-KJ; first compound 1.265 µM): 0.407
relative viability (RERF-LC-KJ; first compound 4 µM): 0.223
